# Results published in PubChem BioAssay (NCI).
#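 Values below derive from 48-hour exposures of cells grown in 96-well plates, with endpoints linearly interpolated between the two concentrations bracketing the appropriate inhibition level. TGI: concentration producing complete growth inhibition.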
# Experiments:
# Assay in all cases: NCI tumour cell line growth inhibition, 48 h
# [1] = system: SN12K1 renal
# [2] = system: SK-MEL-5 melanoma
# [3] = system: EKVX NSCLC
# [4] = system: MCF7 breast
# [5] = system: U251 CNS
# [6] = system: SN12C renal
# [7] = system: A498 renal
# [8] = system: KM12 colon
# [9] = system: SNB-75 CNS
# [10] = system: SF-295 CNS
# [11] = system: OVCAR-3 ovarian
# [12] = system: SK-MEL-2 melanoma
# [13] = system: HCT-116 colon
# [14] = system: OVCAR-8 ovarian
# [15] = system: NCI/ADR-RES ovarian
# [16] = system: K-562 leukemia
# [17] = system: RXF 393 renal
# [18] = system: UO-31 renal
# [19] = system: HT29 colon
# [20] = system: HOP-92 NSCLC
# [21] = system: CCRF-CEM leukemia
# [22] = system: A549 NSCLC
# [23] = system: SF-268 CNS
# [24] = system: SW-620 colon
# [25] = system: SK-MEL-28 melanoma
# [26] = system: SNB-19 CNS
# [27] = system: NCI-H460 lung
# [28] = system: IGROV1 ovarian
# [29] = system: KM20L2 colon
# [30] = system: NCI-H23 lung
# [31] = system: HCT-15 colon
# [32] = system: LOX IMVI melanoma
# [33] = system: UACC-257 melanoma
# [34] = system: NCI-H522 lung
# [35] = system: DLD-1 colon
# [36] = system: HL-60(TB) leukemia
# [37] = system: CAKI-1 renal
# [38] = system: SK-OV-3 ovarian
# [39] = system: RPMI-8226 leukemia
# [40] = system: DMS 273 small cell lung
# [41] = system: HOP-62 NSCLC
# [42] = system: HCC-2998 colon
# [43] = system: DMS 114 small cell lung
# [44] = system: P388/ADR leukemia
# [45] = system: NCI-H226 lung
# [46] = system: UACC-62 melanoma
# [47] = system: P388 leukemia
# [48] = system: SF-539 CNS
# [49] = system: COLO 205 colon
# [50] = system: OVCAR-4 ovarian
# [51] = system: XF 498 CNS
# [52] = system: OVCAR-5 ovarian
# [53] = system: SNB-78 CNS
# [54] = system: HOP-18 NSCLC
# [55] = system: MALME-3M melanoma
# [56] = system: LXFL 529 NSCLC
# [57] = system: ACHN renal
# [58] = system: TK-10 renal
# [59] = system: SR leukemia
# [60] = system: 786-0 renal
# [61] = system: M19-MEL melanoma
# [62] = system: MOLT-4 leukemia
# [63] = system: M14 melanoma
smiles,measurement,setting,value
O=C1C(Br)=CC2([N+](=O)[O-])CCNc3c(O)c4c5c(c3C2=C1Br)=NCCC=5C=N4 (stereo unspecified),TGI,[1],14.7 µM
same,TGI,[2],1.33 µM
same,TGI,[3],7.43 µM
same,TGI,[4],1.72 µM
same,TGI,[5],3.96 µM
same,TGI,[6],5.52 µM
same,TGI,[7],14.5 µM
same,TGI,[8],14.8 µM
same,TGI,[9],20.5 µM
same,TGI,[10],4.63 µM
same,TGI,[11],0.784 µM
same,TGI,[12],3.15 µM
same,TGI,[13],1.09 µM
same,TGI,[14],2.38 µM
same,TGI,[15],6.52 µM
same,TGI,[16],2.33 µM
same,TGI,[17],7.76 µM
same,TGI,[18],22.9 µM
same,TGI,[19],7.24 µM
same,TGI,[20],2.07 µM
same,TGI,[21],1.41 µM
same,TGI,[22],16.3 µM
same,TGI,[23],6.27 µM
same,TGI,[24],4 µM
same,TGI,[25],9.95 µM
same,TGI,[26],9.72 µM
same,TGI,[27],12.1 µM
same,TGI,[28],4.27 µM
same,TGI,[29],10.4 µM
same,TGI,[30],3.41 µM
same,TGI,[31],2.16 µM
same,TGI,[32],6.4 µM
same,TGI,[33],0.887 µM
same,TGI,[34],0.214 µM
same,TGI,[35],1.49 µM
same,TGI,[36],0.454 µM
same,TGI,[37],5.25 µM
same,TGI,[38],13.3 µM
same,TGI,[39],0.761 µM
same,TGI,[40],6.92 µM
same,TGI,[41],11 µM
same,TGI,[42],13.2 µM
same,TGI,[43],0.545 µM
same,TGI,[44],2.35 µM
same,TGI,[45],6.79 µM
same,TGI,[46],3.14 µM
same,TGI,[47],1.14 µM
same,TGI,[48],4.55 µM
same,TGI,[49],0.133 µM
same,TGI,[50],3.7 µM
same,TGI,[51],5.48 µM
same,TGI,[52],2.39 µM
same,TGI,[53],5.48 µM
same,TGI,[54],27.5 µM
CCOC/N=C(/N)NC#N,TGI,[2],> 100 µM
same,TGI,[3],> 100 µM
same,TGI,[5],> 100 µM
same,TGI,[6],> 100 µM
same,TGI,[55],> 100 µM
same,TGI,[56],> 100 µM
same,TGI,[7],> 100 µM
same,TGI,[8],> 100 µM
same,TGI,[9],> 100 µM
same,TGI,[10],> 100 µM
same,TGI,[11],> 100 µM
same,TGI,[12],> 100 µM
same,TGI,[13],> 100 µM
same,TGI,[14],> 100 µM
same,TGI,[16],> 100 µM
same,TGI,[17],> 100 µM
same,TGI,[57],> 100 µM
same,TGI,[18],> 100 µM
same,TGI,[19],> 100 µM
same,TGI,[20],> 100 µM
same,TGI,[21],> 100 µM
same,TGI,[22],> 100 µM
same,TGI,[23],> 100 µM
same,TGI,[24],35.3 µM
same,TGI,[58],> 100 µM
same,TGI,[25],> 100 µM
same,TGI,[26],> 100 µM
same,TGI,[27],> 100 µM
same,TGI,[28],> 100 µM
same,TGI,[29],> 100 µM
same,TGI,[30],> 100 µM
same,TGI,[31],45 µM
same,TGI,[32],27.1 µM
same,TGI,[59],> 100 µM
same,TGI,[60],56.2 µM
same,TGI,[33],> 100 µM
same,TGI,[34],> 100 µM
same,TGI,[35],> 100 µM
same,TGI,[36],> 100 µM
same,TGI,[61],> 100 µM
same,TGI,[37],> 100 µM
same,TGI,[62],> 100 µM
same,TGI,[38],> 100 µM
same,TGI,[39],> 100 µM
same,TGI,[40],> 100 µM
same,TGI,[41],> 100 µM
same,TGI,[42],> 100 µM
same,TGI,[43],> 100 µM
same,TGI,[45],> 100 µM
same,TGI,[46],> 100 µM
same,TGI,[48],> 100 µM
same,TGI,[49],> 100 µM
same,TGI,[51],> 100 µM
same,TGI,[52],> 100 µM
same,TGI,[53],> 100 µM
same,TGI,[54],> 100 µM
same,TGI,[63],> 100 µM
